Results as given in patent US11548880B2, “Modulators of hemoglobin” (Global Blood Therapeutics, Inc., priority 2018, dated 2023).

Key:
Rat PK, oral gavage = type: in vivo, Sprague-Dawley rats; conditions: oral gavage 10 mg/kg; for blood plasma ratio / half-life: male, Sprague-Dawley, rat, po, 10 mg/kg; for blood plasma ratio: whole blood and plasma; for half-life: whole blood
Method: Rat PK: A group of fasted male Sprague-Dawley rats were dosed via oral gavage at 10 mg/kg with test articles formulated in 0.5% methylcellulose suspension. Blood samples were collected through jugular vein at pre-selected time points. Blood samples were prepared by protein precipitation with ACN, vortexed and then centrifuged before supernatants were transferred for bioanalysis. Test article concentrations were measured by HPLC-MS-MS. Pharmacokinetic parameters were calculated using non-compartment analysis. The blood/plasma ratio was calculated by dividing the AUClast (i.e., the area under the curve calculated from t=0 to the last detectable time-point) in blood by the AUClast in plasma. The T1/2 was calculated via a linear regression of the terminal phase of the blood-time concentration profile.

Hb = biological target: T1, Hb (Homo sapiens, UniProt P68871+P69905); experiment: Whole blood assay: oxygen equilibrium curves (Hemox Analyzer), change in p50; type: cell-based; conditions: whole blood incubated 1 h at 37° C., equimolar ratio of hemoglobin to compound
T1 construct: from tissue; host or cells: whole blood
Method: Whole blood assay: Oxygen equilibrium curves (OECs) were collected using a TCS Hemox Analyzer (TCS Scientific Company, New Hope, Pa., USA) to measure changes in the binding affinity of O2 to Hb. Whole blood was incubated for 1 h at 37° C. with the indicated compounds in an equimolar ratio of hemoglobin to compound and diluted into TES (2-[[1,3-dihydroxy-2-(hydroxymethyl)propan-2-yl]amino]ethanesulfonic acid)/saline buffer prior to measurements. For example, for whole blood at 20% hematocrit [Hct], which corresponds to 1 mM Hb, a compound concentration of 1 mM was used (for example, for compounds 1-5), and the incubated sample diluted 50- to 100-fold. The concentration for compounds 6-44 (Diastereomers 1 and 2) varied but remained in equimolar ratio to hemoglobin. The diluted samples were then oxygenated with compressed air within the Hemox Analyzer and the OECs were collected during deoxygenation as previously described (Guarnone et al., Haematologica, 1995, 80, 426-430). p 50 (partial pressure of O2 at which Hb is 50% saturated with O2) values were obtained using a non-linear regression analysis. Percentage change in p50 [Δp50(%)] was calculated as follows: Δp50(%)=[(p50 of control)−p50 with compound)/p50 control]×100.

[1] = AUClast in blood divided by AUClast in plasma, rats
[2] = fasted male Sprague-Dawley rats, 0.5% methylcellulose suspension, blood

T1 sequence (P69905 2-142 limits assumed): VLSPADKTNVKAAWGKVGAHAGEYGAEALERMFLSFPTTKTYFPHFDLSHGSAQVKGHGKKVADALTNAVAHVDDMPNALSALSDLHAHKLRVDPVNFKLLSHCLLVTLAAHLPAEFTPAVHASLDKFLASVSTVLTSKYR
T1 sequence (P68871 2-147 limits assumed): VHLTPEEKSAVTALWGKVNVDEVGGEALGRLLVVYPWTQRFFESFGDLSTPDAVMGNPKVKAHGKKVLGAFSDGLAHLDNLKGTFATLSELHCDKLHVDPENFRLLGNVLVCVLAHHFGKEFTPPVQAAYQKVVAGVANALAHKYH

| Structure (SMILES) | blood plasma ratio (Rat PK, oral gavage; [1]) | half-life (Rat PK, oral gavage; [2]) [days] | Delta-p50 (%) (Hb) | Blood/Plasma ratio (Rat PK, oral gavage; [1]) | T1/2 (Rat PK, oral gavage; [2]) [h] |
| --- | --- | --- | --- | --- | --- |
| O=Cc1c(O)cccc1OCC1CSCCN1C(=O)c1cccnc1CCO (single isomer, unassigned) [10 (Enantiomer 2)] | 212 | 4.67 | 87.3 |  |  |
| O=Cc1c(O)cccc1OC[C@@H]1CSCCN1C(=O)c1ccccc1C(O)CO (single isomer, unassigned) [35 (Diastereomer 1)] | 493 | 4.25 | 81.35 |  |  |
| O=Cc1c(O)cccc1OC[C@@H]1CSCCN1C(=O)c1ccccc1C(O)CO (single isomer, unassigned) [35 (Diastereomer 2)] |  |  | 83.1 | 636 | 89 |
| O=Cc1c(O)cccc1OCC1CSCCN1C(=O)c1ccccc1CO (single isomer, unassigned) [40 (Enantiomer 2)] | 424 | 4.88 | 83.36 |  |  |
| O=Cc1c(O)cccc1OC[C@@H]1CCCCN1C(=O)c1cccnc1CO [Compound 11, (S)-2-hydroxy-6-((1-(2-(hydroxymethyl)nicotinoyl)piperidin-2-yl)methoxy)benzaldehyde] | 126 | 2.29 | 79.3 |  |  |
| COCCc1ncccc1C(=O)N1CCOC[C@H]1COc1cccc(O)c1C=O [Compound 20, 2-hydroxy-6-{[(3S)-4-[2-(2-methoxyethyl)pyridine-3-carbonyl]morpholin-3-yl]methoxy}benzaldehyde] | 45 | 2.71 | 78.32 |  |  |
| O=Cc1c(O)cccc1OC[C@@H]1COCCN1C(=O)c1ccccc1CO [Compound 23, 2-hydroxy-6-{[(3S)-4-[2-(hydroxymethyl)benzoyl]morpholin-3-yl]methoxy}benzaldehyde] | 59 | 2.58 | 70.92 |  |  |
| O=Cc1c(O)cccc1OC[C@@H]1CCCCN1C(=O)c1ccccc1C(O)CO (stereo partly drawn) [Compound 34, 2-{[(2S)-1-[2-(1,2-dihydroxyethyl)benzoyl]piperidin-2-yl]methoxy}-6-hydroxybenzaldehyde] |  |  | 79.46 |  |  |
| O=Cc1c(O)cccc1OC[C@@H]1CCCCN1C(=O)c1cccnc1C(O)CO (stereo partly drawn) [Compound 36, 2-{[(2S)-1-[2-(1,2-dihydroxyethyl)pyridine-3-carbonyl]piperidin-2-yl]methoxy}-6-hydroxybenzaldehyde] | 115 | 2.33 | 77.04 |  |  |
| O=Cc1c(O)cccc1OC[C@H]1COCCN1C(=O)c1cccnc1CCO [Compound 37, 2-hydroxy-6-{[(3R)-4-[2-(2-hydroxyethyl)pyridine-3-carbonyl]morpholin-3-yl]methoxy}benzaldehyde] |  |  | 60.58 |  |  |
| O=Cc1c(O)cccc1OC[C@H]1CCCCN1C(=O)c1cccnc1CCO [Compound 38, 2-hydroxy-6-{[(2R)-1-[2-(2-hydroxyethyl)pyridine-3-carbonyl]piperidin-2-yl]methoxy}benzaldehyde] |  |  | 60.85 |  |  |
| CC(C)(O)Cc1ncccc1C(=O)N1CCOC[C@H]1COc1cccc(O)c1C=O [Compound 39, 2-hydroxy-6-{[(3S)-4-[2-(2-hydroxy-2-methylpropyl)pyridine-3-carbonyl]morpholin-3-yl]methoxy}benzaldehyde] | 52 | 2.17 | 77.98 |  |  |
| O=Cc1c(O)cccc1OCC1CSCCN1C(=O)c1ccccc1CO (stereo not shown) [Compound 40, 2-hydroxy-6-({4-[2-(hydroxymethyl)benzoyl]thiomorpholin-3-yl}methoxy)benzaldehyde] |  |  | 72.82 |  |  |
